What was measured:
Test in all cases: competitive radioligand binding, recombinant cells
Format in all cases: cell-based
5-HT4 = 5-HT4 (Homo sapiens, UniProt Q13639)
σ1 = σ1 (Homo sapiens, UniProt Q99720)
α1B = target: T1, α1B (Homo sapiens, UniProt P35368)
T1 sequence (P35368 1-520): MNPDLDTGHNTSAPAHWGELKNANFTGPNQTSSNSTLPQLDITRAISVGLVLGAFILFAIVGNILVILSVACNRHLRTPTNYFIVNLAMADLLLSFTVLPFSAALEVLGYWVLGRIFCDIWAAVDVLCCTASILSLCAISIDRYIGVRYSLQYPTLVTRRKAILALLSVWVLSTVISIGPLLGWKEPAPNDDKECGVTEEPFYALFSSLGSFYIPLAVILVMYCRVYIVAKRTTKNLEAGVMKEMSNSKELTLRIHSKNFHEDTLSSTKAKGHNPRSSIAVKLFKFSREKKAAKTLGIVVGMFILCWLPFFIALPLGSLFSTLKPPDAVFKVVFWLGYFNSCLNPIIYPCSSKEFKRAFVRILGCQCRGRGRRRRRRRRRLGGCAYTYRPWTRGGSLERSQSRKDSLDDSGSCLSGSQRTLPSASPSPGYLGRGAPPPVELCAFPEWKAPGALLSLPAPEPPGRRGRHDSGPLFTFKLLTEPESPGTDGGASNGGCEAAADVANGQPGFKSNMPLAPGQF

α1D = target: T2, α1D (Homo sapiens, UniProt P25100)
T2 sequence (P25100 1-572): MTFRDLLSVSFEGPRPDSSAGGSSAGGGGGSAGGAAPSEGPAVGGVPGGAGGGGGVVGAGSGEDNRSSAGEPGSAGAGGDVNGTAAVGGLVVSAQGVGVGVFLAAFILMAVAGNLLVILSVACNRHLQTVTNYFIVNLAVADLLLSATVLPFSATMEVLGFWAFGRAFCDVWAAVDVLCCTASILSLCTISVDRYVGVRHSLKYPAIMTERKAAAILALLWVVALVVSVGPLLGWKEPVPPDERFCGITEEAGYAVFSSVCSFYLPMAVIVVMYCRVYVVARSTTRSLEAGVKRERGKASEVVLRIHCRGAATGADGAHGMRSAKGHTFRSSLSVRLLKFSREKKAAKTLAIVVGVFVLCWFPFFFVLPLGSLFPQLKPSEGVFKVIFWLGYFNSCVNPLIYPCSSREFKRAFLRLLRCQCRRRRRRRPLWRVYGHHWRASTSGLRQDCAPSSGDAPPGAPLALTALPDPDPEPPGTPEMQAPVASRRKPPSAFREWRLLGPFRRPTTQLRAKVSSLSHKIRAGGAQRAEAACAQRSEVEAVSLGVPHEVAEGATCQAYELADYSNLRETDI

Sequence of 5-HT4 (Q13639 whole entry): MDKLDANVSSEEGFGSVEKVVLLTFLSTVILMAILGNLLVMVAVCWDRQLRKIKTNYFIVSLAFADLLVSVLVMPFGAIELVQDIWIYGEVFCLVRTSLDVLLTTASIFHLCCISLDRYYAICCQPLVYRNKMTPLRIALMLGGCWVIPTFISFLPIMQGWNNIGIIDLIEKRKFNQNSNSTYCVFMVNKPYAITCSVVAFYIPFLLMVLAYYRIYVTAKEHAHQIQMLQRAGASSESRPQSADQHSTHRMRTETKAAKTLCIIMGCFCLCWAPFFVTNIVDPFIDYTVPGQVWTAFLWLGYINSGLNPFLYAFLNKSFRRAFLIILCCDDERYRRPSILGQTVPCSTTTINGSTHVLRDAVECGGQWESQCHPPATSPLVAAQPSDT
Sequence of σ1 (Q99720 whole entry): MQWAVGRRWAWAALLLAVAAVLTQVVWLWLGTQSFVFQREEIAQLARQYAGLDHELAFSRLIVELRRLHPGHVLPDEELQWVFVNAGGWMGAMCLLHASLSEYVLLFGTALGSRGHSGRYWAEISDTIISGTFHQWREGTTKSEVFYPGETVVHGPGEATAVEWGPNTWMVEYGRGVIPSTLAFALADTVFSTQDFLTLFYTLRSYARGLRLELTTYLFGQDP

O=c1n(CCCN2CCN(c3cccc(Cl)c3)CC2)nc2ccccn12 [trazodone]
Ki (5-HT4): 10000 nM | Ki (σ1): 3980 nM | Ki (α1B): 15 nM | Ki (α1D): 27 nM

Source: publication PMC9200067 (Clinical and Translational Science, 2022)
